Data taken from the NIST ThermoML archive (doi:10.1016/j.jct.2004.04.004).

Assay: xn = mol fraction of the nth substance listed
Details: 101.3 kPa, Liquid

Cc1ccccc1C [1,2-dimethylbenzene] + C[S+](C)[O-]
Details	mass density [kg/m3]
293.15 K, x1 = 0.0858	1070.35
293.15 K, x1 = 0.1359	1054.5
293.15 K, x1 = 0.1957	1036.82
293.15 K, x1 = 0.2589	1019.38
293.15 K, x1 = 0.3283	1001.63
293.15 K, x1 = 0.3947	985.85
293.15 K, x1 = 0.4732	968.58
293.15 K, x1 = 0.5482	953.27
293.15 K, x1 = 0.6132	940.87
293.15 K, x1 = 0.6648	931.53
293.15 K, x1 = 0.7329	919.84
293.15 K, x1 = 0.8012	908.78
293.15 K, x1 = 0.8732	897.78
293.15 K, x1 = 0.9198	891.02
303.15 K, x1 = 0.0923	1059.85
303.15 K, x1 = 0.153	1040.84
303.15 K, x1 = 0.229	1018.94
303.15 K, x1 = 0.3013	999.82
303.15 K, x1 = 0.3539	986.84
303.15 K, x1 = 0.439	967.38
303.15 K, x1 = 0.4938	955.72
303.15 K, x1 = 0.5539	943.64
303.15 K, x1 = 0.615	932.03
303.15 K, x1 = 0.6849	919.56
303.15 K, x1 = 0.7537	907.99
303.15 K, x1 = 0.8327	895.54
303.15 K, x1 = 0.9123	883.82
313.15 K, x1 = 0.0794	1055.53
313.15 K, x1 = 0.1246	1040.99
313.15 K, x1 = 0.1936	1020.26
313.15 K, x1 = 0.2638	1000.86
313.15 K, x1 = 0.3248	985.24
313.15 K, x1 = 0.4058	966.09
313.15 K, x1 = 0.5732	931.27
313.15 K, x1 = 0.649	917.29
313.15 K, x1 = 0.7044	907.66
313.15 K, x1 = 0.7724	896.49
313.15 K, x1 = 0.8355	886.69
313.15 K, x1 = 0.8943	878.03
313.15 K, x1 = 0.9234	873.9
323.15 K, x1 = 0.0833	1045.74
323.15 K, x1 = 0.1489	1024.89
323.15 K, x1 = 0.1948	1011.29
323.15 K, x1 = 0.2587	993.57
323.15 K, x1 = 0.3278	975.84
323.15 K, x1 = 0.4039	957.84
323.15 K, x1 = 0.4632	944.82
323.15 K, x1 = 0.5399	929.1
323.15 K, x1 = 0.6012	917.37
323.15 K, x1 = 0.664	906.05
323.15 K, x1 = 0.7576	890.35
323.15 K, x1 = 0.8148	881.37
323.15 K, x1 = 0.8833	871.21
323.15 K, x1 = 0.9347	863.97
333.15 K, x1 = 0.0795	1038.47
333.15 K, x1 = 0.1399	1019.08
333.15 K, x1 = 0.2048	999.81
333.15 K, x1 = 0.2598	984.62
333.15 K, x1 = 0.3189	969.38
333.15 K, x1 = 0.3832	953.94
333.15 K, x1 = 0.4539	938.16
333.15 K, x1 = 0.5138	925.7
333.15 K, x1 = 0.5822	912.36
333.15 K, x1 = 0.6427	901.28
333.15 K, x1 = 0.7038	890.71
333.15 K, x1 = 0.7638	880.89
333.15 K, x1 = 0.8247	871.45
333.15 K, x1 = 0.9138	858.53
343.15 K, x1 = 0.0698	1033.25
343.15 K, x1 = 0.1587	1004.79
343.15 K, x1 = 0.2184	987.38
343.15 K, x1 = 0.275	972.02
343.15 K, x1 = 0.3576	951.35
343.15 K, x1 = 0.4247	935.94
343.15 K, x1 = 0.4933	921.29
343.15 K, x1 = 0.5539	909.2
343.15 K, x1 = 0.6349	894.13
343.15 K, x1 = 0.7038	882.21
343.15 K, x1 = 0.7971	867.23
343.15 K, x1 = 0.8621	857.5
343.15 K, x1 = 0.9324	847.62
353.15 K, x1 = 0.0431	1034
353.15 K, x1 = 0.1383	1002.49
353.15 K, x1 = 0.2043	982.8
353.15 K, x1 = 0.2748	963.47
353.15 K, x1 = 0.3534	943.75
353.15 K, x1 = 0.4148	929.55
353.15 K, x1 = 0.4829	914.87
353.15 K, x1 = 0.5457	902.24
353.15 K, x1 = 0.6198	888.33
353.15 K, x1 = 0.6831	877.21
353.15 K, x1 = 0.7598	864.61
353.15 K, x1 = 0.8244	854.67
353.15 K, x1 = 0.8846	845.91
353.15 K, x1 = 0.9423	837.96
